{
  "source": "patent US6649172B2",
  "about": "“Amphipathic aldehydes and their uses as adjuvants and immunoeffectors” (Corixa Corporation, priority 2000, dated 2003); on CTL Ratio of CD8+, IFNγ+ Lymphocytes: key: N: 1:5000-1:1000; 1N: 1:999-1:750; 2N: 1:749-1:500; 3N: 1:499-1:250; 4N: 1:249-1:200; 5N: 1:199-1:100; on Lymphocytes CD8+, IFNγ+ (ratio of CD8+, IFNγ+ cells to total CD8+ cells): key: N: 1:5000-1:1000; 1N: 1:999-1:750; 2N: 1:749-1:500; 3N: 1:499-1:250; 4N: 1:249-1:200; 5N: 1:199-1:100",
  "key": {"[1]": {"test_system": "transfected P815 cell line (P815S)", "experiment": "CTL activity, four hour 51Cr-release assay with spleen cells of vaccinated mice (Example 7)", "assay_type": "in vivo, BALB/c mice", "conditions": "for Percent Specific Cell Lysis (50:1): 50:1 effector:target ratio, P815S targets, spleen cells 26 days after secondary vaccination, s.c. days 0 and 21, 1 μg rHBsAg ± 1000 μg III ± 5 μg 99", "method": "Fourteen days after the second injection single cell suspensions are prepared from splenic lymphocytes of 3 mice per group. The spleen cells (75×10^6) are subsequently incubated at 37° C. in 10 ml RP10-SC media containing 50 nM of an L^d-restricted HBV CTL epitope ([…]) for 4 days. Stimulated effector cells are harvested, resuspended to 5×10^6 […] and serially diluted (in triplicate) in a volume of 100 μl RP10-SC/well of a 96 well microtiter plate followed by the addition of […] of RP10-SC containing 1×10^4 51Cr labeled P815S target cells (transfected P815 cells (H-2^d) expressing the hepatitis B S-antigen). Plates are centrifuged for 5 min at 400×g and placed in a 37° C. CO2 incubator for 4 h. Percent specific cytotoxicity is then determined.\n(§1) Spleen cells were collected from donor mice 26 days after the secondary vaccination and evaluated for CTL activity. rHBsAg directed specific lysis was assessed in a standard four hour ^51Cr-release assay and by measurement of CD8+, IFNγ+ using flow cytometry."}, "CD8+, IFNγ+ cells [2]": {"test_system": "CD8+, IFNγ+ cells", "experiment": "CD8+, IFNγ+ lymphocytes by flow cytometry, spleen cells of vaccinated mice (Example 8)", "assay_type": "in vivo, BALB/c mice", "conditions": "for CTL Ratio of CD8+, IFNγ+ Lymphocytes: female BALB/c mice, s.c. days 0 and 14, spleen cells 11 days after secondary vaccination; for CTL response to the hepatitis vaccine antigen (summary in words): rHBsAg vaccine, s.c. days 0 and 14, mice, CD8+, IFNγ+ flow cytometry", "method": "Spleen cells were collected from donor mice 11 days after the secondary vaccination and evaluated for CTL activity. The rHBsAg directed CTL was assessed by measurement of CD8+, IFNγ+ using flow cytometry."}, "CD8+, IFNγ+ cells [3]": {"test_system": "CD8+, IFNγ+ cells", "experiment": "CD8+, IFNγ+ lymphocytes by flow cytometry, spleen cells of vaccinated mice (Example 7)", "assay_type": "in vivo, BALB/c mice", "conditions": "spleen cells 26 days after secondary vaccination, 75 nM CTL epitope peptide, six-hour incubation; s.c. days 0 and 21, 1 μg rHBsAg ± 1000 μg III ± 5 μg 99", "method": "as §1"}, "[4]": {"test_system": "recombinant hepatitis B surface antigen (rHBsAg)", "experiment": "Serum antibody titers to rHBsAg by ELISA after vaccination (Example 8)", "assay_type": "in vivo, BALB/c mice", "conditions": "for adjuvant activity: serum antibody production (summary in words): rHBsAg vaccine, s.c. days 0 and 14, mice", "method": "Compounds 40, 42, and 44, were evaluated for adjuvant activity with a model hepatitis B vaccine. These compounds were prepared as aqueous formulations in PBS and admixed with recombinant hepatitis B surface antigen (rHBsAg) with or without the AGP adjuvant 99. Compound 99 was solubilized in an aqueous formulation containing dipalmitoylphosphatidyl choline in water. Mice were administered the vaccines on days 0 and 14 by subcutaneous (s.c.) injection. The antigen-specific immune response to rHBsAg was evaluated by measurement of serum antibody and cytotoxic T lymphocytes (CTL). The results shown in Table 3 confirm the adjuvant activity of compounds of 40, 42, and 44."}, "[5]": {"test_system": "recombinant hepatitis B surface antigen (rHBsAg)", "experiment": "Serum antibody titers to rHBsAg by ELISA after vaccination (Example 7)", "assay_type": "in vivo, BALB/c mice", "method": "For the evaluation of antibody responses, […] by vaginal wash and individually tested for HBsAg-specific antibody activity by enzyme-linked immunosorbent assay (ELISA). The endpoint antibody titers of each mouse are evaluated as total IgG, IgG1, IgG2a, IgG2b and IgA specific for rHBsAg.\nCompound III, isotucaresol, was evaluated for adjuvant activity with a model hepatitis B vaccine. III, was prepared as an aqueous formulation in PBS and admixed with recombinant hepatitis B surface antigen (rHBsAg) (Rhein Biotech, Düisseldorf, Germany) with or without the AGP adjuvant 99 (2-[(R)-3-tetradecanoyloxytetradecanoylamino]ethyl 2-Deoxy-4-O-phosphono-3-O-[(R)-3-tetradecanoyloxytetradecanoyl]-2-[(R)-3-tetradecanoyloxytetradecanoylamino]-β-D-glucopyranoside Triethylammonium Salt). Mice were administered the vaccines on days 0 and 21 by subcutaneous (s.c.) injection of vaccine containing 1 μg rHBsAg±1000 μg III±5 μg 99. The antigen-specific immune response to rHBsAg was evaluated by measurement of serum antibody and cytotoxic T lymphocytes (CTL)."}, "[6]": {"test_system": "sheep red blood cells (SRBC)", "conditions": "cited from earlier work"}, "[7]": {"conditions": "adjuvant dose 5 μg with rHBsAg, female BALB/c mice, s.c. days 0 and 14, serum 11 days post-secondary vaccination, ELISA"}, "[8]": {"conditions": "female BALB/c mice, s.c. days 0 and 21, 1 μg rHBsAg ± 1000 μg III ± 5 μg 99, serum 21 days post-secondary vaccination, ELISA"}, "[9]": {"conditions": "adjuvant dose 250 μg with rHBsAg"}, "[10]": {"conditions": "adjuvant dose 500 μg with rHBsAg"}, "[11]": {"conditions": "adjuvant dose 1000 μg with rHBsAg"}, "[12]": {"conditions": "adjuvant dose 250 μg with rHBsAg, female BALB/c mice, s.c. days 0 and 14, serum 11 days post-secondary vaccination, ELISA"}, "[13]": {"conditions": "1 μg rHBsAg + 1000 μg III + 5 μg 99, s.c. days 0 and 21, mice"}},
  "data": [
    {"compound": "2-[(R)-3-tetradecanoyloxytetradecanoylamino]ethyl 2-Deoxy-4-O-phosphono-3-O-[(R)-3-tetradecanoyloxytetradecanoyl]-2-[(R)-3-tetradecanoyloxytetradecanoylamino]-β-D-glucopyranoside triethylammonium salt [Compound 99, reference compound]", "values": [
      {"measurement": "Percent Specific Cell Lysis (50:1)", "setting": "[1]", "result": "5+ (“5+” is 41-50 Percent Specific Cell Lysis)"},
      {"measurement": "CTL Ratio of CD8+, IFNγ+ Lymphocytes", "setting": "CD8+, IFNγ+ cells [2]; adjuvant dose 5 μg with rHBsAg", "result": 4, "unit": "N"},
      {"measurement": "Lymphocytes CD8+, IFNγ+ (ratio of CD8+, IFNγ+ cells to total CD8+ cells)", "setting": "CD8+, IFNγ+ cells [3]", "result": 3, "unit": "N"},
      {"measurement": "Gross Geometric Serum Titers IGG", "setting": "[4]; [7]", "result": "5,000X"},
      {"measurement": "Gross Geometric Serum Titers IgG2a", "setting": "[4]; [7]", "result": "5,000X"},
      {"measurement": "Gross Geometric Mean Serum Titers IgG1", "setting": "[5]; [8]", "result": "5,000X"},
      {"measurement": "Gross Geometric Mean Serum Titers IgG2a", "setting": "[5]; [8]", "result": "5,000X"}
    ]},
    {"compound": "COC(=O)c1ccc(COc2ccc(O)c(C=O)c2)cc1", "note": "[Compound 40, methyl 4-(3-formyl-4-hydroxyphenoxymethyl)benzoate]", "values": [
      {"measurement": "CTL Ratio of CD8+, IFNγ+ Lymphocytes", "setting": "CD8+, IFNγ+ cells [2]; [9]", "result": 3, "unit": "N"},
      {"measurement": "CTL Ratio of CD8+, IFNγ+ Lymphocytes", "setting": "CD8+, IFNγ+ cells [2]; [10]", "result": 2, "unit": "N"},
      {"measurement": "CTL Ratio of CD8+, IFNγ+ Lymphocytes", "setting": "CD8+, IFNγ+ cells [2]; [11]", "result": 5, "unit": "N"},
      {"measurement": "CTL response to the hepatitis vaccine antigen (summary in words)", "setting": "CD8+, IFNγ+ cells [2]", "result": "enhance the CTL response"},
      {"measurement": "Gross Geometric Serum Titers IgG1", "setting": "[4]; [12]", "result": "1,000X"},
      {"measurement": "Gross Geometric Serum Titers IgG1", "setting": "[4]; adjuvant dose 500 μg with rHBsAg, female BALB/c mice, s.c. days 0 and 14, serum 11 days post-secondary vaccination, ELISA", "result": "5,000X"},
      {"measurement": "Gross Geometric Serum Titers IgG1", "setting": "[4]; adjuvant dose 1000 μg with rHBsAg, female BALB/c mice, s.c. days 0 and 14, serum 11 days post-secondary vaccination, ELISA", "result": "5,000X"},
      {"measurement": "adjuvant activity: serum antibody production (summary in words)", "setting": "[4]", "result": "enhanced serum antibody production"},
      {"measurement": "melting point", "result": "132 to 134", "unit": "°C"}
    ]},
    {"compound": "C[C@@H]1CC[C@@]2(OC1)O[C@H]1[C@@H](O)[C@H]3[C@@H]4CC[C@H]5C[C@@H](O[C@@H]6O[C@H](CO)[C@H](O[C@@H]7O[C@H](CO)[C@@H](O)[C@H](O[C@@H]8OC[C@@H](O)[C@H](O)[C@H]8O)[C@H]7O[C@@H]7O[C@H](CO)[C@H](O)[C@H](O[C@@H]8O[C@H](CO)[C@@H](O)[C@H](O)[C@H]8O)[C@H]7O)[C@H](O)[C@H]6O)[C@H](O)C[C@]5(C)[C@H]4CC[C@]3(C)[C@H]1[C@@H]2C", "note": "[digitonin]", "values": [
      {"measurement": "hemolytic activity towards red blood cells", "setting": "[6]", "result": "highly hemolytic"}
    ]},
    {"compound": "O=Cc1cc(OCc2ccc(C(=O)O)cc2)ccc1O", "note": "[Compound III, 4-[(3-formyl-4-hydroxyphenoxy)methyl]benzoic acid]", "values": [
      {"measurement": "effect on the CTL adjuvant activity induced by 99 (summary in words)", "setting": "[1]; [13]", "result": "additive effect"},
      {"measurement": "CTL response to the vaccine antigen (summary in words)", "setting": "[1]; 1 μg rHBsAg + 1000 μg III, s.c. days 0 and 21, mice, 51Cr-release and CD8+, IFNγ+ flow cytometry", "result": "enhances the CTL response"},
      {"measurement": "Percent Specific Cell Lysis (50:1)", "setting": "[1]", "result": "4+ (“4+” is 31-40 Percent Specific Cell Lysis)"},
      {"measurement": "Lymphocytes CD8+, IFNγ+ (ratio of CD8+, IFNγ+ cells to total CD8+ cells)", "setting": "CD8+, IFNγ+ cells [3]", "result": 2, "unit": "N"},
      {"measurement": "melting point", "result": "222 to 224 °C (dec.)"},
      {"measurement": "interaction with the AGP adjuvant 99 on serum antibody (summary in words)", "setting": "[5]; [13]", "result": "acts synergistically"},
      {"measurement": "adjuvant activity: serum antibody production (summary in words)", "setting": "[5]; 1 μg rHBsAg + 1000 μg III, s.c. days 0 and 21, mice", "result": "enhanced serum antibody production"},
      {"measurement": "Gross Geometric Mean Serum Titers IgG", "setting": "[5]; [8]", "result": "5,000X"},
      {"measurement": "Gross Geometric Mean Serum Titers IgG1", "setting": "[5]; [8]", "result": "5,000X"}
    ]},
    {"compound": "O=Cc1cc(OCc2ccc(C(=O)O)cc2)ccc1OCCCC(=O)O", "note": "[Compound 44]", "values": [
      {"measurement": "CTL Ratio of CD8+, IFNγ+ Lymphocytes", "setting": "CD8+, IFNγ+ cells [2]; [9]", "result": 4, "unit": "N"},
      {"measurement": "CTL Ratio of CD8+, IFNγ+ Lymphocytes", "setting": "CD8+, IFNγ+ cells [2]; [10]", "result": 3, "unit": "N"},
      {"measurement": "CTL Ratio of CD8+, IFNγ+ Lymphocytes", "setting": "CD8+, IFNγ+ cells [2]; [11]", "result": 2, "unit": "N"},
      {"measurement": "CTL response to the hepatitis vaccine antigen (summary in words)", "setting": "CD8+, IFNγ+ cells [2]", "result": "enhance the CTL response"},
      {"measurement": "adjuvant activity: serum antibody production (summary in words)", "setting": "[4]", "result": "enhanced serum antibody production"}
    ]},
    {"compound": "O=Cc1cc(OCc2ccc(C(=O)O)cc2)ccc1OCC(=O)O", "note": "[Compound 42, 4-[(4-carboxymethoxy-3-formyl-phenoxy)methyl]benzoic acid]", "values": [
      {"measurement": "CTL Ratio of CD8+, IFNγ+ Lymphocytes", "setting": "CD8+, IFNγ+ cells [2]; [9]", "result": 5, "unit": "N"},
      {"measurement": "CTL Ratio of CD8+, IFNγ+ Lymphocytes", "setting": "CD8+, IFNγ+ cells [2]; [10]", "result": 3, "unit": "N"},
      {"measurement": "CTL Ratio of CD8+, IFNγ+ Lymphocytes", "setting": "CD8+, IFNγ+ cells [2]; [11]", "result": 2, "unit": "N"},
      {"measurement": "CTL response to the hepatitis vaccine antigen (summary in words)", "setting": "CD8+, IFNγ+ cells [2]", "result": "enhance the CTL response"},
      {"measurement": "Gross Geometric Serum Titers IgG1", "setting": "[4]; [12]", "result": "1,000X"},
      {"measurement": "adjuvant activity: serum antibody production (summary in words)", "setting": "[4]", "result": "enhanced serum antibody production"},
      {"measurement": "melting point", "result": "239 to 242 °C (dec.)"}
    ]}
  ]
}
